According to US20260041679A1, “METHOD OF TREATING HYPERTENSION WITH THE ALDOSTERONE SYNTHASE INHIBITOR BAXDROSTAT” (CINCOR PHARMA, INC., priority 2022, published 2026):
Where two headings read alike, the source gives them in different places. One block for each compound: values may come before it.

How the values were obtained:
[1] = PATHWAY-2 study; cited from earlier work
[2] = TEAEs by MedDRA class
clinical = conditions: human, in vivo; for CL renal: CLR (urine); for Tmax: Tmax (plasma)
[3] = human, in vivo, 1000 mg
[4] = Plasma PK of baxdrostat and baxdrostat-M in the metformin crossover study (Example 6A); type: in vivo, human; conditions: single 10-mg dose of baxdrostat; for AUC(0-t) / Cmax / Tmax: human
Protocol: This study was designed as a phase 1, randomized, open-label, 2-period, crossover trial. Each subject participated in a screening period of up to 26 days followed by 2 inpatient treatment periods and a follow-up phone call. […] Plasma samples were extracted by protein precipitation with methanol, followed by analysis by LC-MS/MS with ESI(+) and MRM. Reversed-phase chromatographic separation with a mobile phase gradient of 20% to 90% was utilized, and total run time was approximately 5 minutes. […] PK parameters were calculated using noncompartmental methods with SAS software, version 9.4 (SAS Institute). […] Tmax; […] AUC0-t; AUC0-inf, AUC0-inf extrapolated; λz; and t1/2. Plasma AUC0-72 was assessed only for baxdrostat and baxdrostat-M. […] Urine PK parameters included Ae, renal clearance (calculated as Ae/AUC), and the fraction of dose excreted renally.

[5] = Pharmacokinetics in subjects with varying degrees of renal function (Example 4); type: in vivo, human
Protocol: This phase 1, open-label, single-dose, parallel-group study was designed in accordance with the FDA guidance for the design and analysis of studies that assess the influence of impaired renal function on PK. Subjects were enrolled into three renal function groups defined based on eGFR calculated using the Chronic Kidney Disease Epidemiology Collaboration equation as follows: […]
Control(normal renal function or mild renal impairment:eGFR≥60 mL/min) • Moderate to severe renal impairment (eGFR 15 to 59 mL/min) • Kidney failure (eGFR<15 mL/min, including subjects on dialysis)
All subjects received a single 10 mg dose of baxdrostat in an open-label manner. […] All subjects were required to fast for a minimum of 10 hours prior to baxdrostat administration. They were then dosed at 8:00 AM (±2 hours) with two 5 mg tablets administered with approximately 240 mL of water. Subjects continued fasting for a minimum of 4 hours after dosing. No other medications were permitted within 2 hours prior to dosing and for 2 hours after dosing with baxdrostat. Subjects on dialysis received the study drug on a non-dialysis day. Blood and urine sample collection for PK analysis continued for 7 days and was proceeded by a follow-up phone call 3±1 days after clinic discharge.
Plasma and urine samples were analyzed to measure concentrations of baxdrostat and its primary metabolite (baxdrostat-M) using a validated LC-MS/MS method. “Baxdrostat-M” as used herein refers a compound having the following structure:
Blood and urine samples were collected prior to and after dosing for measurement of plasma and urine baxdrostat and baxdrostat-M concentrations to characterize maximum observed plasma concentration (Cmax), time to Cmax (Tmax), AUC0-last, and AUC0-inf for baxdrostat and baxdrostat-M. The t1/2, CL/F, and V/F were calculated for plasma baxdrostat only. Urine PK parameters included the cumulative amount of baxdrostat and baxdrostat-M excreted in urine (Ae), renal clearance (CLR) of baxdrostat and baxdrostat-M, and fraction of dose excreted renally (Fe) for baxdrostat.

Compound: CC(=O)S[C@@H]1CC2=CC(=O)CC[C@]2(C)[C@H]2CC[C@@]3(C)[C@@H](CC[C@@]34CCC(=O)O4)[C@H]12 [spironolactone]
- rate of hyperkalemia [1]: 2.1%

- CL renal (clinical; 1000 mg, GM): 460 mL/min
- CL renal (clinical; 1000 mg, Mean): 466 mL/min
- Tmax (clinical; 1000 mg, Mean (SD)): 2.14 h
- CL renal (clinical; GM): 430 mL/min
- CL renal (clinical; Mean): 441 mL/min
- Tmax (clinical; GM (CV %)): 1.92 h
- Tmax (clinical; Mean (SD)): 2.04 h
- AUC0-inf (plasma), GM [3]: 11,087.78 h · ng/mL
- AUC0-inf (plasma), Mean [3]: 11,224.76 h · ng/mL
- AUC0-t (plasma), GM [3]: 11,024.21 h · ng/mL
- AUC0-t (plasma), Mean [3]: 11,158.75 h · ng/mL
- Cmax (plasma), GM [3]: 1732.62 ng/mL
- Cmax (plasma), Mean [3]: 1765.39 ng/mL
Compound: CN(C)C(=N)N=C(N)N [Metformin, metformin]
- Abdominal pain upper, No. (%) [2]: 1 (3.8) No. (%)
- Burns first degree, No. (%) [2]: 1 (3.8) No. (%)
- Diarrhea, No. (%) [2]: 3 (11.5) No. (%)
- Dizziness postural, No. (%) [2]: 0 (0.0) No. (%)
- Flatulence, No. (%) [2]: 0 (0.0) No. (%)
- Gastrointestinal disorders, No. (%) [2]: 4 (15.4) No. (%)
- General disorders and administration site conditions, No. (%) [2]: 0 (0.0) No. (%)
- Injury, poisoning, and procedural complications, No. (%) [2]: 1 (3.8) No. (%)
- Nausea, No. (%) [2]: 1 (3.8) No. (%)
- Nervous system disorders, No. (%) [2]: 0 (0.0) No. (%)
- Presyncope, No. (%) [2]: 0 (0.0) No. (%)
- Vessel puncture site pain, No. (%) [2]: 0 (0.0) No. (%)
- Diarrhea, No. (%) ([2]; listed as metformin): 3 (11.5%) No. (%)

- AUC(0-t) ([4]; read-out: AUC0-24, GM): 103 ng·h/mL
- AUC(0-t) ([4]; read-out: AUC0-24, Mean): 111 ng·h/mL
- AUC(0-t) ([4]; read-out: AUC0-72, GM): 248 ng·h/mL
- AUC(0-t) ([4]; read-out: AUC0-72, Mean): 264 ng·h/mL
- Cmax ([4]; read-out: Cmax, GM): 6.16 ng/mL
- Cmax ([4]; read-out: Cmax, Mean): 6.72 ng/mL
- Tmax ([4]; read-out: Tmax, GM): 12.4 h
- Tmax ([4]; read-out: Tmax, Mean): 15.7 h
- λz, GM [4]: 0.030 h⁻¹
- λz, Mean [4]: 0.030 h⁻¹
- Tmax ([5]; human, plasma, oral, 10 mg, all renal function groups, after single 10 mg baxdrostat, read-out: Tmax): ~22 h
Compound: CN1C(=O)CCc2cc(-c3cncc4c3CCCC4O)ccc21 (stereo not drawn) [baxdrostat-M]
- plasma concentration-time curves vs control ([5]; moderate to severe renal impairment and kidney failure groups): qualitatively similar to the control group
